# Test system: Lysozyme
# Experiment: Inhibition of Maillard reaction: suppression of lysozyme dimer formation (lysozyme + fructose, SDS-PAGE)
# Type: biochemical
# Settings: inhibition ratio of test compound to aminoguanidine (positive control); lysozyme 10 mg/ml, fructose 100 mM, 0.2M sodium phosphate pH 7.4, 37° C., 3 days; dimer amount by SDS-PAGE
# Protocol: Lysozyme and fructose were dissolved in a buffer solution of 0.2M sodium phosphate (pH 7.4) to respectively give concentrations of 10 mg/ml and 100 mM. After incubating at 37° C. for 3 days, a definite amount of the mixture was taken out and electrophoresed with the use of SDS-PAGE. After the completion of the electrophoresis, the gel was stained with 0.2% Coomassie Brilliant Blue R-250 and the amount of the dimer thus formed was determined.
# Each of the test compounds was added before the initiation of the incubation and the effect of suppressing the formation of the dimer was examined at various concentrations, whereby the IC50 value was obtained. As a positive control, aminoguanidine, which is a known glycation inhibitor, was employed and the inhibition ratio of the test compound to aminoguanidine (IC50 of aminoguanidine/IC50 of test compound) was calculated.
row,Compound,IC50 of aminoguanidine/IC50 of test compound
1,2-(4-Acetoamidobenzenesulfonohydrazono)-5-(4-benzyloxybenzyl)imidazolidin- 4-one [Test compound 76],7.9
2,2-Cyclohexylmethylenehydrazono-5-(N-phenylcarbamoylmethyl)thiazolidin-4-one [Test compound 83],0.6
3,2-Isopropylidenehydrazino-4-(3-pyridyl)thiazole [Test compound 89],53
4,2-Isopropylidenehydrazino-4-methylthiazole [Test compound 23],3.5
5,2-Isopropylidenehydrazono-5(R)-(N-phenylcarbamoylmethyl)thiazolidin-4-one [Test compound 109],2.8
6,2-Isopropylidenehydrazono-5(S)-(N-phenylcarbamoylmethyl)thiazolidin-4-one [Test compound 110],3.1
7,2-Isopropylidenehydrazono-5-(N-morpholinocarbamoylmethyl)thiazolidin-4-one [Test compound 69],1.1
8,2-Isopropylidenehydrazono-5-[N-(1-naphthyl)carbamoylmethyl]thiazolidin-4-one [Test compound 59],0.8
9,2-Isopropylidenehydrazono-5-[N-(2-methoxycarbonyl-4-methylphenyl)carbamoylmethyl]imidazolidin-4-one [Test compound 96],3.9
10,2-Isopropylidenehydrazono-5-[N-(2-methyl-5-methoxycarbonylphenyl)carbamoylmethyl]thiazolidin-4-one [Test compound 84],3.5
11,"2-Isopropylidenehydrazono-5-[N-(3,4,5-trichlorophenyl)carbamoylmethyl]thiazolidin-4-one [Test compound 57]",0.8
12,2-Isopropylidenehydrazono-5-[N-(4-methylthiophenyl)carbamoylmethyl]thiazolidin-4-one [Test compound 55],5.3
13,2-Isopropylidenehydrazono-5-{N-[1-methoxycarbonyl-2-(3-indolyl)ethyl]carbamoylmethyl}thiazolidin-4-one [Test compound 102],4.3
14,4-[4-(4-Chlorobenzyloxy)phenyl]-2-isopropylidenehydrazinothiazole [Test compound 27],3.1
15,5-(4-Benzyloxybenzyl)-2-isopropylidenehydrazonothiazolidin-4-one [Test compound 12],4.4
16,5-(N-carboxymethylcarbamoylmethyl)-2-isopropylidenehydrazonothiazolidin-4- one [Test compound 47],1.7
17,5-(N-ethoxycarbonylmethylcarbamoylmethyl)-2-isopropylidenehydrazonothiazolidin-4-one [Test compound 19],2.5
18,5-(N-isopropylcarbamoylmethyl)-2-isopropylidenehydrazonothiazolidin-4-one [Test compound 31],0.6
19,5-[N-(1-carboxy-3-methylbutyl)carbamoylmethyl]-2-isopropylidenehydrazonothiazolidin-4-one [Test compound 103],1.7
20,5-[N-(1-ethoxycarbonyl-3-methylbutyl)carbamoylmethyl]-2-isopropylidenehydrazonothiazolidin-4-one [Test compound 97],2.3
21,5-[N-(2-carboxy-4-methylphenyl)carbamoylmethyl]-2-isopropylidenehydrazonothiazolidin-4-one [Test compound 54],4.2
22,5-[N-(2-carboxymethylphenyl)carbamoylmethyl]-2-isopropylidenehydrazonothiazolidin-4-one [Test compound 108],3.2
23,5-[N-(2-carboxyphenyl)carbamoylmethyl]-2-isopropylidenehydrazonothiazolidin-4-one [Test compound 92],0.94

row,Compound,IC50 of aminoguanidine/IC50 of test compound
1,5-[N-(3-ethoxycarbonylphenyl)carbamoylmethyl]-2-isopropylidenehydrazonothiazolidin-4-one [Test compound 105],4.2
2,5-[N-(4-bromophenyl)carbamoylmethyl]-2-isopropylidenehydrazonothiazolidin- 4-one [Test compound 56],10.2
3,5-[N-(4-carboxyphenyl)carbamoylmethyl]-2-isopropylidenehydrazonothiazolidin-4-one [Test compound 16],3.1
4,5-[N-(5-carboxy-2-methylphenyl)carbamoylmethyl]-2-isopropylidenehydrazonothiazolidin-4-one [Test compound 91],1.6
5,5-{N-[1-carboxy-2-(4-benzyloxyphenyl)ethyl]carbamoylmethyl}-2-isopropylidenehydrazonothiazolidin-4-one [Test compound 101],1.5
6,"CC(C)=NN=C1NC(=O)C(Cc2ccc(OCc3ccccc3)cc2)N1 (stereo not shown) [Test compound 1, 5-(4-Benzyloxybenzyl)-2-isopropylidenehydrazonoimidazolidin-4-one]",3.6
7,"CC(C)=NN=C1NC(=O)C(C)N1 (stereo not shown) [Test compound 2, 2-Isopropylidenehydrazono-5-methylimidazolidin-4-one]",2.8
8,"CC(C)=NN=C1NC(=O)C(Cc2ccccc2)N1 (stereo not shown) [Test compound 3, 5-Benzyl-2-isopropylidenehydrazonoimidazolidin-4-one]",1.6
9,"CC(C)=NN=C1NC(=O)C(Cc2ccc(O)cc2)N1 (stereo not shown) [Test compound 4, 5-(4-Hydroxybenzyl)-2-isopropylidenehydrazonoimidazolidin-4-one]",4.8
10,"CC(C)=NN=C1NC(=O)C(Cc2ccc(OCc3c(Cl)cccc3Cl)cc2)N1 (stereo not shown) [Test compound 5, 5-[4-(2,6-Dichlorobenzyloxy)benzyl]-2-isopropylidenehydrazonoimidazolidin-4-one]",8.0
11,"CC(C)=NN=C1NC(=O)C(Cc2ccc(OCc3ccc(Cl)cc3)cc2)N1 (stereo not shown) [Test compound 6, 5-[4-(4-Chlorobenzyloxy)benzyl]-2-isopropylidenehydrazonoimidazolidin-4-one]",8.3
12,"CC(C)=NN=C1NC(=O)C(c2ccc(O)cc2)N1 (stereo not shown) [Test compound 7, 5-(4-Hydroxyphenyl)-2-isopropylidenehydrazonoimidazolidin-4-one]",1.1
13,"CC(C)=NN=C1NC(Cc2ccc(O)cc2)C(=O)N1Cc1ccccc1 (stereo not shown) [Test compound 9, 3-Benzyl-5-(4-hydroxybenzyl)-2-isopropylidenehydrazonoimidazolidin-4-one]",1.3
14,"CC(C)=NN=C1NC(=O)C(Cc2ccc(Sc3ccccc3)cc2)N1 (stereo not shown) [Test compound 10, 2-Isopropylidenehydrazono-5-(4-phenylthiobenzyl)imidazolidin-4-one]",5.4
15,"CSc1ccc(CC2SC(=NN=C(C)C)NC2=O)cc1 (stereo not shown) [Test compound 11, 2-isopropylidenehydrazono-5-(4-methylthiobenzyl)thiazolidin-4-one]",1.2
16,"CCOC(=O)c1ccc(NC(=O)CC2SC(=NN=C(C)C)NC2=O)cc1 (stereo not shown) [Test compound 15, 5-[N-(4-ethoxycarbonylphenyl)carbamoylmethyl]-2-isopropylidenehydrazonothiazolidin-4-one]",1.2
17,"CC(C)=NN=C1NC(=O)C(CC(=O)NC2CCCCC2)S1 (stereo not shown) [Test compound 18, 5-(N-cyclohexylcarbamoylmethyl)-2-isopropylidenehydrazonothiazolidin-4-one]",1.5
18,"CCOC(=O)CN1C(=O)C(CC(=O)O)SC1=NN=C(C)C (stereo not shown) [Test compound 20, 5-Carboxymethyl-3-ethoxycarbonylmethyl-2-isopropylidenehydrazonothiazolidin-4-one]",3.0
19,"O=C1CN2C(=NN1)NC(=O)C2COCc1ccccc1 (stereo not shown) [Test compound 29, 9-Benzyloxymethyl-1,4,5,7-tetraazabicyclo[4.3.0]nonan-5-ene-3,8-dione]",0.6
20,"CC(C)=NN=C1NC(=O)C(CC(=O)NCc2ccccc2)S1 (stereo not shown) [Test compound 30, 5-(N-Benzylcarbamoylmethyl)-2-isopropylidenehydrazonothiazolidin-4-one]",3.5
21,"CC(C)=NN=C1NC(=O)C(CC(=O)Nc2ccccc2)S1 (stereo not shown) [Test compound 32, 2-isopropylidenehydrazono-5-(N-phenylcarbamoylmethyl)thiazolidin-4-one]",55
22,"CC(C)=NN=C1NC(=O)C(Cc2ccc([N+](=O)[O-])cc2)N1 (stereo not shown) [Test compound 33, 2-Isopropylidenehydrazono-5-(4-nitrobenzyl)imidazolidin-4-one]",2.4
23,"CC(C)=NN=C1NC(=O)C(Cc2ccc(OCC3CCCCC3)cc2)N1 (stereo not shown) [Test compound 35, 5-[4-(Cyclohexylmethyloxy)benzyl]-2-isopropylidenehydrazonoimidazolidin-4-one]",0.8
